Measured values: patent US9346769B2, “Tetrazolones as inhibitors of fatty acid synthase” (Infinity Pharmaceuticals, Inc., priority 2010, dated 2016)

The compounds below were run against T1, human FASN (Homo sapiens, UniProt P49327) (assay: FASN NADPH Consumption Assay). Conditions: human FASN purified from SKBR3 cells; starred symbols.
T1 construct: was purified from SKBR3 cells using procedures modified from those in Jayakumar et al; endogenous in cells; host or cells: SKBR3 human breast cancer cells (ATCC); Endogenous enzyme purified by ammonium sulfate precipitation and a mono Q column
T1 sequence (P49327 whole entry): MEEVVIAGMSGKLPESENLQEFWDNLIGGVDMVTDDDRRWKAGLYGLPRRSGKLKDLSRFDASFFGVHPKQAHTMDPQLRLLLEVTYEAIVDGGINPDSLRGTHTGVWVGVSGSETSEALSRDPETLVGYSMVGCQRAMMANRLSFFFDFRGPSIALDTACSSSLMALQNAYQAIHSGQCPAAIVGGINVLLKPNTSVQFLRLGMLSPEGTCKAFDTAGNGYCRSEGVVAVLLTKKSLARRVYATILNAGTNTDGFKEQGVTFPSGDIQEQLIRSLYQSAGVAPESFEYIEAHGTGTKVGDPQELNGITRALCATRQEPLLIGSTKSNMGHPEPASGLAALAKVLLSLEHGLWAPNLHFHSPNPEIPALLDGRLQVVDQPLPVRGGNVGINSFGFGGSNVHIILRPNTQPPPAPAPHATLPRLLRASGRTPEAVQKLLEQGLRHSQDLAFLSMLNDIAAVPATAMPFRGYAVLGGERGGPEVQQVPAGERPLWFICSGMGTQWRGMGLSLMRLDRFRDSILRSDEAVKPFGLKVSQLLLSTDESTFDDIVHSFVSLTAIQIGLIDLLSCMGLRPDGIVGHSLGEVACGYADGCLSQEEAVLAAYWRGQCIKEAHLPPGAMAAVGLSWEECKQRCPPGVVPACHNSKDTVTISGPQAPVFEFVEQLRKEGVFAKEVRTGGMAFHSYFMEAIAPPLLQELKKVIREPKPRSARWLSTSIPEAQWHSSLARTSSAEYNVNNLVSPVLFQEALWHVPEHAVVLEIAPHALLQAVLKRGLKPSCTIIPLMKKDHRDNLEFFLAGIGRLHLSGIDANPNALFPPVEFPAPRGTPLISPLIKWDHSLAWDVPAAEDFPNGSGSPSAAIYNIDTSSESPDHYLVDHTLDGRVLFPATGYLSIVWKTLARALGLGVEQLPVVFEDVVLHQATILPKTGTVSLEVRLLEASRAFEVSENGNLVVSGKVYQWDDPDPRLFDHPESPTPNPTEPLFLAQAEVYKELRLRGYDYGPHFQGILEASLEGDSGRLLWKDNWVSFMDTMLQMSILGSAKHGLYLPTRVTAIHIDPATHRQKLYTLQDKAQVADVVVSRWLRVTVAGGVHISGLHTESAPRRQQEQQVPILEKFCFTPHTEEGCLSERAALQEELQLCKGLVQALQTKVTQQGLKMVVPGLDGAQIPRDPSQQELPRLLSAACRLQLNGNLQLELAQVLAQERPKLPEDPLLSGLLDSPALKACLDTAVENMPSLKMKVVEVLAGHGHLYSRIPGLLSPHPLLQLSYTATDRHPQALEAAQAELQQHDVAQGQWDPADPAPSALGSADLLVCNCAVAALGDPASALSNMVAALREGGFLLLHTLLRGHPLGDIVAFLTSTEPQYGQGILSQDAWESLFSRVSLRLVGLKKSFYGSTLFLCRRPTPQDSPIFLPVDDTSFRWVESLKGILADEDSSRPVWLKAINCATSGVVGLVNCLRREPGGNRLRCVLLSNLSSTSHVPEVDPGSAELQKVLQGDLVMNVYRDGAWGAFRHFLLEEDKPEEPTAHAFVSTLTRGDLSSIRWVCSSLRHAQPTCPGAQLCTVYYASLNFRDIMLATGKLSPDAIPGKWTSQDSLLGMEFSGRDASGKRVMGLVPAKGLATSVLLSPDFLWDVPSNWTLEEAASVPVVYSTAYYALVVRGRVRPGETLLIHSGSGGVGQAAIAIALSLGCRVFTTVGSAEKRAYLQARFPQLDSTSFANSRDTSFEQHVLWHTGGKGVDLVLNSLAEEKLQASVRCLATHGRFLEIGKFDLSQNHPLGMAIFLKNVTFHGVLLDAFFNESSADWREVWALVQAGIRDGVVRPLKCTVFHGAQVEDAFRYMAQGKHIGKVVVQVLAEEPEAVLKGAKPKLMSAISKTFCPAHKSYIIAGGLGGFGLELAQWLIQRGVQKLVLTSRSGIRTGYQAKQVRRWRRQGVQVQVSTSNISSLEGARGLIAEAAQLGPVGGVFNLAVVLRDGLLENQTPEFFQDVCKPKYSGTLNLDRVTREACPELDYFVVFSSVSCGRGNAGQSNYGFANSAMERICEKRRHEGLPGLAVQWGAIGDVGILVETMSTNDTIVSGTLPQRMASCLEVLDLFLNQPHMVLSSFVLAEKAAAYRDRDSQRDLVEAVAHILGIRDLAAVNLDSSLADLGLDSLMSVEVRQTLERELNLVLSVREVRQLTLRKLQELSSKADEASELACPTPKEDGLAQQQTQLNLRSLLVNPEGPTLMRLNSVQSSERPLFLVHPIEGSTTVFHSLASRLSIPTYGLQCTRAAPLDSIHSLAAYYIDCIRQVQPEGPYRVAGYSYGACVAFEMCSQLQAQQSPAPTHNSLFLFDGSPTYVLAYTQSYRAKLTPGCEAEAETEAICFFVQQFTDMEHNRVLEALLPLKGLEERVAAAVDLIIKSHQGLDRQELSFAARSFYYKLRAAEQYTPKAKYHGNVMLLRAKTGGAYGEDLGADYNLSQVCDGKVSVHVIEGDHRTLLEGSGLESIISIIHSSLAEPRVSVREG
Assay type: biochemical
Procedure: Human FASN protein (SEQ ID NO. 1) was purified from SKBR3 cells using procedures modified from those in Jayakumar et al. PNAS 1995, 92:8695-8699. SKBR3 cells were obtained from ATCC and grown in DMEM high glucose medium supplemented with 10% FBS, 1 μg/mL bovine pancreas insulin, 100 U/mL penicillin and 100 µg/mL streptomycin. The confluent cells were trypsinized and washed three times with PBS buffer before frozen in liquid N2 and stored at −80° C. Frozen cells were thawed on ice and resuspended in lysis buffer (25 mM Tris-HCl, pH 7.0, 15 mM NaCl, 1 mM EDTA, and 1 mM DTT) with protease inhibitors. The cells were lysed by sonication, and the cell debris was removed by centrifugation at 20,000 rpm for 30 min. To the supernatant, neutralized saturated ammonium sulfate solution was added to a final concentration of 35%. The solution was left on ice for 1 hr, and the precipitated proteins were harvested by centrifugation at 20,000 rpm for 30 min. The proteins were redissolved in lysis buffer without NaCl and loaded on a mono Q column. Bound proteins were eluted with a linear gradient of NaCl in lysis buffer. Each fraction was analyzed by SDS-PAGE and FASN NADPH consumption assay. The fractions containing FASN were pooled and concentrated to 2-3 mg/mL. Glycerol was added to 20%, and the protein was frozen in liquid N2 and stored at −80° C.
All chemicals were purchased from Sigma (St. Louis, Mo.). The procedures of NADPH consumption assay were similar to those described in Cox et al., PNAS 1983, 80:4233-4237. On a 96-well polypropylene microplate, dilution series (typical concentrations 60 nM-1.0 mM) of test compounds were prepared in DMSO, of which 4.0 μL each was transferred to a black polystyrene assay microplate and mixed with 36 μL FASN assay buffer (50 mM potassium phosphate, pH 7.0, 1.0 mM EDTA, 0.01% NP-40) plus 5.0 mM fresh DTT. FASN protein (40 μL 150 nM FASN) was added per well, and the microplate was incubated at 37° C. for 30 min. Enzyme activity measurement was initiated by addition of 20 μL 5× substrate mixture to final concentrations of 60 nM FASN, 2.4 nM-40 μM compound, 0.2 mM NADPH, 50 μM butyryl-CoA, 0.5 mM malonyl-CoA in 100 μL assay buffer plus 5.0 mM DTT and 4.0% DMSO. NADPH consumption was monitored kinetically by fluorescence (λEx=340 nm, λEm=460 nm) on an EnVision 2100 multilabel plate reader (Perkin Elmer, Waltham, Mass.). FASN enzyme activity (slope) in the presence of 4% DMSO was used as maximum control, whereas background (minimum control) was measured by omission of malonyl-CoA in the substrate mixture. Inhibition curves were fitted by a logistic function to yield IC50 values:
Compounds were assayed as inhibitors of human FASN using the above-described FASN Scintillation Proximity Flashplate Assay (IC50; nM) or FASN NADPH Consumption Assay (*) (IC50; nM). The corresponding activity of the isolated compound is also provided along with the measured mass (ES^+).

IC50 [nM] | SMILES
> 10000 | CC(=O)NCCN(C(=O)n1nnn(-c2c(Cl)cccc2Cl)c1=O)C1CCCCC1
60 to 250 | O=C(N1CCCc2ccccc21)n1nnn(-c2c(F)cccc2F)c1=O
1000 to 10000 | CCN(C(=O)n1nnn(-c2c(F)cccc2C(=O)O)c1=O)c1ccccc1Oc1ccccc1
> 10000 | CCCN(C)C(=O)n1nnn(-c2ccccc2Cl)c1=O
1000 to 10000 | COc1ccc(C(=O)OCc2ccccc2)cc1N(CCCCc1ccccc1)C(=O)n1nnn(-c2ccccc2OC)c1=O
> 10000 | CCN(C(=O)n1nnn(-c2c(C)cccc2C(C)(C)C)c1=O)C1CCCCC1
1000 to 10000 | C[C@@H]1CC(=O)[C@@H]2CCCC[C@H]2N1C(=O)n1nnn(-c2c(F)cccc2F)c1=O
60 to 250 | Cc1ccc2c(c1)CCCN2C(=O)n1nnn(-c2c(F)cccc2F)c1=O
1000 to 10000 | COc1cccc(F)c1-n1nnn(C(=O)N(C2CCCCC2)C2CCCCC2)c1=O
60 to 250 | O=C(N(O)C1CCCCC1)n1nnn(-c2c(F)cccc2F)c1=O
1000 to 10000 | CCN(CC)C(=O)C1CCCN(C(=O)n2nnn(-c3c(Cl)cccc3Cl)c2=O)C1 (stereo not drawn)
250 to 1000 | C/C=C(/C)c1ccc(N(C)C(=O)n2nnn(-c3ccccc3Cl)c2=O)cc1
< 60 | CCN(C(=O)n1nnn(-c2c(F)cccc2F)c1=O)c1ccc(N(S(C)(=O)=O)S(C)(=O)=O)cc1F
1000 to 10000 | CCN(C(=O)n1nnn(-c2ccccc2SC)c1=O)C1CCCCC1
60 to 250 | Cc1ccccc1C#Cc1cccc(F)c1-n1nnn(C(=O)N2CCCCc3ccccc32)c1=O
60 to 250 | CCN(C(=O)n1nnn(-c2c(Cl)cccc2Cl)c1=O)c1ccc(C(=O)OCc2ccc(OC)cc2)c(Cl)c1
60 to 250 | CCN(C(=O)n1nnn(-c2c(F)cccc2F)c1=O)c1cccc2ccccc12
60 to 250 | CC(C)(C)OC(=O)Nc1cccc2c1CCCN2C(=O)n1nnn(-c2c(F)cccc2F)c1=O
60 to 250 | CCCN(C(=O)n1nnn(-c2c(F)cccc2F)c1=O)c1ccccc1
1000 to 10000 | CCN(C(=O)n1nnn(-c2ccccc2Br)c1=O)C1CCCCC1
> 10000 | CCN(C(=O)n1nnn(-c2ccc(C(F)(F)F)cc2)c1=O)C1CCCCC1
> 10000 | CC(=O)NC1CCCN(C(=O)n2nnn(-c3c(Cl)cccc3Cl)c2=O)C1 (stereo not drawn)
1000 to 10000 | CCN(C(=O)n1nnn(-c2c(Cl)cccc2Cl)c1=O)C1CCOC(C)(C)C1 (stereo not drawn)
1000 to 10000 | CCCCCCN(C(=O)n1nnn(-c2ccccc2OC)c1=O)c1cc(C(=O)OCc2ccccc2)ccc1OC
60 to 250 | CCN(C(=O)n1nnn(-c2c(Cl)cccc2Cl)c1=O)c1ccc(NS(=O)(=O)C(F)(F)F)cc1
1000 to 10000 | N#CCCN(C(=O)n1nnn(-c2c(Cl)cccc2Cl)c1=O)C1CCCCC1

IC50 [nM] | SMILES
> 10000 | CCN(C(=O)n1nnn(-c2ccc(F)cc2)c1=O)C1CCCCC1
250 to 1000 | CC(C)N(C(=O)n1nnn(-c2c(Cl)cccc2Cl)c1=O)c1ccccc1
1000 to 10000 | CCN(C(=O)n1nnn(-c2c(Cl)cccc2Cl)c1=O)C1CCCC(C(=O)NCC(N)=O)C1 (stereo not drawn)
< 60 | CCN(C(=O)n1nnn(-c2c(Cl)cccc2Cl)c1=O)c1cccc(C(=O)NS(=O)(=O)c2ccccc2)c1
250 to 1000 | CCN(C(=O)n1nnn(-c2ccccc2OC)c1=O)c1ccc(OC)c(C(=O)O)c1
60 to 250 | CCCCC#Cc1ccc(N(CC)C(=O)n2nnn(-c3c(F)cccc3F)c2=O)c(F)c1
60 to 250 | CCN(C(=O)n1nnn(-c2ccccc2OC)c1=O)c1ccc(C(=O)O)cc1OC
60 to 250 | CCN(C(=O)n1nnn(-c2c(F)cccc2C#Cc2ccccc2)c1=O)c1ccccc1
60 to 250 | CCN(C(=O)n1nnn(-c2c(Cl)cccc2Cl)c1=O)c1cccc(N)c1
> 10000 | CC(=O)N[C@@H]1CCN(C(=O)n2nnn(-c3c(Cl)cccc3Cl)c2=O)C1
1000 to 10000 | CCN(C(=O)n1nnn(-c2ccc([N+](=O)[O-])cc2)c1=O)C1CCCCC1
1000 to 10000 | CCOC(=O)N1CCCC(N(CC)C(=O)n2nnn(-c3c(Cl)cccc3Cl)c2=O)C1 (stereo not drawn)
250 to 1000 | CCCCCCCCCCCCN(C)C(=O)n1nnn(-c2ccccc2Cl)c1=O
1000 to 10000 | CCN(C(=O)n1nnn(-c2cc(F)ccc2F)c1=O)C1CCCCC1
60 to 250 | CCN(C(=O)n1nnn(-c2c(Cl)cccc2Cl)c1=O)c1ccc(C(=O)OCc2ccc(OC)cc2)cc1Cl
1000 to 10000 | CCN(C(=O)n1nnn(-c2c(Cl)cccc2Cl)c1=O)C1CCCN(S(C)(=O)=O)C1 (stereo not drawn)
1000 to 10000 | CCN(C(=O)n1nnn(-c2c(Cl)cccc2Cl)c1=O)C1CCN(C(=O)OC(C)(C)C)CC1
1000 to 10000 | CN(Cc1ccccc1)C(=O)n1nnn(-c2ccccc2Cl)c1=O
60 to 250 | COc1ccc(C(=O)O)cc1N(CCCc1ccccc1)C(=O)n1nnn(-c2c(F)cccc2F)c1=O
< 60 | C=CCN(C(=O)n1nnn(-c2c(F)cccc2F)c1=O)c1ccccc1
1000 to 10000 | CCN(C(=O)n1nnn(-c2ccccc2F)c1=O)C1CCCCC1
60 to 250 | CCN(C(=O)n1nnn(-c2ccccc2OC)c1=O)c1cc(C(=O)O)ccc1OC
60 to 250 | CCN(C(=O)n1nnn(-c2c(Cl)cccc2Cl)c1=O)c1ccc(C(=O)O)c(OC)c1
250 to 1000 | CCN(C(=O)n1nnn(-c2c(F)cccc2F)c1=O)C1CCCCC1
1000 to 10000 | O=C(N1CCCc2cc([N+](=O)[O-])ccc21)n1nnn(-c2c(F)cccc2F)c1=O
> 10000 | CC(C)(C)OC(=O)NCCN(C(=O)n1nnn(-c2c(Cl)cccc2Cl)c1=O)C1CCCCC1

IC50 [nM] | SMILES
> 10000 | CC(=O)N[C@H]1CCN(C(=O)n2nnn(-c3c(Cl)cccc3Cl)c2=O)C1
> 10000 | CCN(C(=O)n1nnn(-c2cccc(F)c2)c1=O)C1CCCCC1
60 to 250 | CCN(C(=O)n1nnn(-c2c(Cl)cccc2Cl)c1=O)c1ccc(C(=O)NS(=O)(=O)c2ccccc2)cc1
1000 to 10000 | CCN(C(=O)n1nnn(-c2cccc(Cl)c2Cl)c1=O)C1CCCCC1
60 to 250 | CCN(C(=O)n1nnn(-c2c(F)cccc2F)c1=O)c1ccc(Br)cc1F
< 60 | CCN(C(=O)n1nnn(-c2c(F)cccc2F)c1=O)c1cc(F)ccc1F
1000 to 10000 | CC(C)(C)OC(=O)C1CCN(C(=O)n2nnn(-c3c(Cl)cccc3Cl)c2=O)CC1
250 to 1000 | COC(=O)C1CCc2ccccc2N1C(=O)n1nnn(-c2ccccc2Oc2ccccc2)c1=O (stereo not drawn)
1000 to 10000 | CCN(C(=O)n1nnn(-c2c(Cl)cccc2Cl)c1=O)C1CCC(C(=O)NC(C(N)=O)c2ccccc2)CC1 (stereo not drawn)
1000 to 10000 | CN(C)N(C(=O)n1nnn(-c2cccc(Cl)c2)c1=O)C1=CCCCC1
250 to 1000 | CCCCC#Cc1ccc(N(C)C(=O)n2nnn(-c3c(F)cccc3F)c2=O)cc1
< 60 | CCN(C(=O)n1nnn(-c2c(F)cccc2F)c1=O)c1ccc(C(=O)O)cc1
250 to 1000 | CCCOc1ccc(C(=O)O)cc1N(CC)C(=O)n1nnn(-c2ccccc2OC)c1=O
1000 to 10000 | CCN(C(=O)n1nnn(-c2c(F)cccc2F)c1=O)c1ccccc1-c1ccccc1
60 to 250 | CCN(C(=O)n1nnn(-c2c(F)cccc2F)c1=O)c1ccc(CCc2ccccc2)cc1F
1000 to 10000 | CCN(C(=O)n1nnn(-c2c(Cl)cccc2Cl)c1=O)C1CCCC(C(=O)N2CCN(C)CC2)C1 (stereo not drawn)
1000 to 10000 | CCN(C(=O)n1nnn(-c2ccccc2OC(F)(F)F)c1=O)C1CCCCC1
1000 to 10000 | CN(C)N(C(=O)n1nnn(-c2ccccc2Cl)c1=O)C1=CCCCC1
60 to 250 | CCN(C(=O)n1nnn(-c2c(Cl)cccc2Cl)c1=O)c1ccc(C(=O)O)cc1OC
60 to 250 | O=C(N(c1ccccc1)c1ccccc1)n1nnn(-c2ccccc2Oc2ccccc2)c1=O
> 10000 | CCN(C(=O)n1nnn(-c2c(Cl)cccc2Cl)c1=O)C1CCC(C(=O)N2CCN(C)CC2)CC1 (stereo not drawn)
1000 to 10000 | CN(C)C1CCCN(C(=O)n2nnn(-c3c(Cl)cccc3Cl)c2=O)C1 (stereo not drawn)
1000 to 10000 | CCC(C)c1ccccc1-n1nnn(C(=O)N(CC)C2CCCCC2)c1=O (stereo not drawn)
60 to 250 | CCN(C(=O)n1nnn(-c2c(F)cccc2CCc2ccccc2)c1=O)c1ccccc1
> 10000 | CCN(C(=O)n1nnn(-c2cccc(Cl)c2)c1=O)C1CCCCC1
> 10000 | CCN(C(=O)n1nnn(-c2ccsc2)c1=O)C1CCCCC1
